# Data published in US20100047332A1, “Treatments for burns using thyroid hormone compound in a human” (priority 2005, published 2010).
# Tests used:
# lateral hip fat deposits = assay: TriAc cream before exercise for lateral hip fat deposits; type: in vivo, human
# From the text: A non obese person who ran 20 miles a week had lateral hip fat deposits which were resistant to any change.
# [1] = tested on: wounds such as lacerations; assay: Lacerations treated with continuous topical T-3 or TriAc; type: in vivo, human; details: continuous topical application, in approximately three days
# [2] = tested on: plasma glycerol (lipolysis of fat); assay: Plasma glycerol assay before and after mild exercise with topical TriAc cream; type: in vivo, human; details: for glycerol response relative to baseline: Triac applied; for Percentage change: glycerol after exercise vs baseline
# From the text: This example uses a glycerol assay to determine the effectiveness of topically applied thyroid hormones or thyroid hormone like molecules as described in the art to increase lipolysis of fat when topically applied. More specifically, this example uses a glycerol assay to determine the effectiveness of topically applied thyroid hormones or thyroid hormone like molecules as described in the art to dissolve fat when topically applied in an amount less than a single oral dose used typically for daily therapeutic or replacement dosages.
# Three adult humans (A, B, and C) with normally functioning thyroids and no history of cardiovascular disease, varying by age, sex, BMI, body surface area, and physical activity, were tested. Age varies from less than 25 (subject A) to over 40 (subjects B and C). BMI varied between 18 (A), 20 (C), and 30 (B). Physical activity was greatest in subject A, who had the lowest BMI and was also the youngest. The other two subjects typically had less than three hours of exercise per week. No food or drink other than water was given two hours prior to application of the TriAc formulation. With this short fast, the subjects are still in the fed state and plasma glycerol levels would be expected to not change during exercise, as taught in the literature for young fit subjects (Coyle et al, J Appl Physiol. 1985 August; 59(2):429-33, herein incorporated by reference). The fed state as defined herein is an individual not having an overnight fast. […] The amount of cream and thus TriAc amount was not varied according to age, sex, or weight. The cream was applied intermittently: application days were separated by at least two days.
# The subjects rested for 30 minutes and then exercised in a defined manner to maintain either 65-70% of their age adjusted maximal heart rate or 110-120 strides on a Precor 544 EFX elliptical trainer for 30 minutes. Heart rate was monitored continuously with a Polar wireless monitoring device. Room temperature varied between 72 and 84 degrees. Calories expended (from Precor) per kilogram were approximately constant among each participant and between participants on a per kilogram basis during each of the exercise sessions and were usually around 3.0 to 3.5 calories per kg (see Table 4). After a 30 minute exercise session and a 5 minute programmed cool down session, another plasma glycerol assay was taken. The samples were immediately refrigerated and centrifuged after 0 to 10 hours, each exercise set treated exactly the same way, frozen at −40° C. and assayed with the Sigma-Aldrich plasma glycerol assay after deproteinization. Exercise time was fixed at a regular time of day. The next day, the experiment was repeated. The order was placebo day, then treatment day.
# The magnitude of the change pre and post exercise with and without TriAc was calculated and the percentage change from baseline with and without TriAc was calculated.
# [3] = tested on: deep dermal pressure ulcer; assay: TriAc cream on a deep dermal pressure ulcer; type: in vivo, human
# From the text: The patient was a active triathlete who had developed a bicycle seat ulcer which was a persistent fissure running from coccyx almost to the anus. The deep dermal pressure ulcer resulted from pressure due to a bicycle seat. This pressure injury frequently was oozing and was generally moist. The fissure was 1-2 mm wide and 2-3 mm deep. It was resistant to a variety of over the counter steroid and anti-fungal creams and lanolin. […] The cream was applied for 4 treatments on an every other day basis, using barely enough to treat the area about 20 cm^2, sometimes every third day. […] Skin has remained intact for close to 6 months. The dermal ulcer in this example was non healing until the cream was used on an intermittent basis
# rat = details: cited from earlier work
# [4] = group, exercise with the TriAc treatment
compound,measurement,setting,value
"O=C(O)Cc1cc(I)c(Oc2ccc(O)c(I)c2)c(I)c1 [TriAc, [4-(4-hydroxy-3-iodophenoxy)-3,5-diiodophenyl]acetic acid]",change of fat deposits,"lateral hip fat deposits; 9 mg TriAc per 100 ml base, 1 to 3 times a week before exercise, for 2 to 3 weeks",Little change
same,fat deposits,lateral hip fat deposits; after 5 weeks of application,could barely be discerned
same,signs of inflammation,[1],increased signs of inflammation
same,glycerol response relative to baseline,"[2]; no exercise, subject A, one experiment",80%
same,glycerol response relative to baseline,"[2]; no exercise, subject B",13%
same,glycerol response relative to baseline,"[2]; no exercise, subject C",−40%
same,glycerol response relative to baseline,"[2]; with exercise, subject A",250%
same,average increase of the concentration of glycerol,[2]; [4],37 µM
same,average increase of the concentration of glycerol above baseline,[2]; [4],124%
same,increase of exercise induced breakdown of fat as evidenced by plasma glycerol,"[2]; group, versus placebo",over 300%
same,Net change in glycerol concentration after exercise,"[2]; subject A, Trial 1 Treatment",67.6 µM
same,Glycerol Concentration,"[2]; subject A, Trial 1 Treatment, 120 micrograms TriAc cream topical, After exercise",93.7 µM
same,Glycerol Concentration,"[2]; subject A, Trial 1 Treatment, 120 micrograms TriAc cream topical, Before exercise (baseline)",26.2 µM
same,Percentage change,"[2]; subject A, Trial 1 Treatment",258.9%
same,Net change in glycerol concentration after exercise,"[2]; subject A, Trial 2 Treatment",66.2 µM
same,Glycerol Concentration,"[2]; subject A, Trial 2 Treatment, After exercise",97.9 µM
same,Glycerol Concentration,"[2]; subject A, Trial 2 Treatment, Before exercise (baseline)",31.7 µM
same,Percentage change,"[2]; subject A, Trial 2 Treatment",208.7%
same,Net change in glycerol concentration after exercise,"[2]; subject A, Trial 3 Treatment",23.4 µM
same,Glycerol Concentration,"[2]; subject A, Trial 3 Treatment, After exercise",42.7 µM
same,Glycerol Concentration,"[2]; subject A, Trial 3 Treatment, Before exercise (baseline)",19.3 µM
same,Percentage change,"[2]; subject A, Trial 3 Treatment",121.4%
same,Net change in glycerol concentration after exercise,"[2]; subject B, Trial 1 Treatment",29.0 µM
same,Glycerol Concentration,"[2]; subject B, Trial 1 Treatment, After exercise",64.8 µM
same,Glycerol Concentration,"[2]; subject B, Trial 1 Treatment, Before exercise (baseline)",35.8 µM
same,Percentage change,"[2]; subject B, Trial 1 Treatment",80.8%
same,Net change in glycerol concentration after exercise,"[2]; subject B, Trial 2 Treatment",30.3 µM
same,Glycerol Concentration,"[2]; subject B, Trial 2 Treatment, After exercise",60.7 µM
same,Glycerol Concentration,"[2]; subject B, Trial 2 Treatment, Before exercise (baseline)",30.3 µM
same,Percentage change,"[2]; subject B, Trial 2 Treatment",100.0%
same,Net change in glycerol concentration after exercise,"[2]; subject B, Trial 3 Treatment",17.9 µM
same,Glycerol Concentration,"[2]; subject B, Trial 3 Treatment, After exercise",40.0 µM
same,Glycerol Concentration,"[2]; subject B, Trial 3 Treatment, Before exercise (baseline)",22.1 µM
same,Percentage change,"[2]; subject B, Trial 3 Treatment",80.3%
same,Net change in glycerol concentration after exercise,"[2]; subject C, Trial 1 Treatment",37.2 µM
same,Glycerol Concentration,"[2]; subject C, Trial 1 Treatment, After exercise",80.0 µM
same,Glycerol Concentration,"[2]; subject C, Trial 1 Treatment, Before exercise (baseline)",42.7 µM
same,Percentage change,"[2]; subject C, Trial 1 Treatment",87.1%
same,Net change in glycerol concentration after exercise,"[2]; subject C, Trial 2 Treatment",38.2 µM
same,Glycerol Concentration,"[2]; subject C, Trial 2 Treatment, After exercise",90.3 µM
same,Glycerol Concentration,"[2]; subject C, Trial 2 Treatment, Before exercise (baseline)",52.1 µM
same,Percentage change,"[2]; subject C, Trial 2 Treatment",73.3%
same,Net change in glycerol concentration after exercise,"[2]; subject C, Trial 3 Treatment",30.3 µM
same,Glycerol Concentration,"[2]; subject C, Trial 3 Treatment, After exercise",57.9 µM
same,Glycerol Concentration,"[2]; subject C, Trial 3 Treatment, Before exercise (baseline)",27.6 µM
same,Percentage change,"[2]; subject C, Trial 3 Treatment",110.0%
same,increase of effectiveness of exercise to burn fat,"[2]; using percentage change in the concentration of glycerol, versus placebo",about 400%
same,healing of the ulcer,"[3]; 0.006% cream, 4 treatments every other day, over the next few weeks",substantial healing
same,time skin has remained intact,[3]; after treatment with 0.006% cream,~6 months
same,amount needed to make a 200 gm rat hyperthyroid,rat,approximately 7 micrograms
